The values that follow come from patent publication US5998624A, “Haloisoquinoline carboxamide” (Emory University, priority 1998, dated 1999).

As a reminder, the Ki is a dissociation constant, usually derived from enzyme kinetics or from competition with a known ligand. A higher Ki goes with lower affinity.

“And” between values parts separate entries of the source, which are not always exact repeats. Identical values can stand only once.

For the first assay, the target named is T1, PK receptors (Rattus norvegicus, UniProt P16257).
T1 construct: Tissue preparations of rat kidney homogenate; from tissue; host or cells: rat kidney homogenate
The experiment in a line: Inhibition of [^3 H]PK11195 binding to PK receptors in rat kidney homogenate. The conditions noted are these: [^3 H]PK11195, 60 min, room temperature, Average, N-2. As for the experimental part: The binding affinities of representative compounds of the invention are given in Table I. In this study, the compounds having the generic structure defined, supra, were tested for their ability to inhibit the binding of a known PK receptor antagonist [^3 H]PK11195, to PK receptors in a rat kidney homogenate preparation.
Tissue preparations of rat kidney homogenate were incubated with [^3 H]PK11195 and competitors (i.e. 9a-d & 23a-c, at 12 concentrations ranging from 10^-11 to 10^-6 […]) in an assay buffer. The assay mixture was incubated for 60 min. at room temperature with stirring and the resulting samples were rapidly filtered through Whatman GF/B glass-fiber filters pretreated with 0.2% protamine base and washed with cold buffer, pH 7.4. The filters were counted in a liquid scintillation counter at an efficiency of 65% for tritium saturation binding, Scatchard and competition experiments were analyzed with the iterative nonlinear least squares curve-fitting program. For comparison, for PK11195, X is Cl, Y and Z are H, and R is 2-butyl. Compounds having the lower Ki values were the most As effective inhibitors, and therefore bound the PK-receptor at the lowest concentrations. Compounds of the invention are also useful for radiation therapy, based on their specific affinity for glial tumor cells.
`CN(CCCF)C(=O)c1cc2ccccc2c(-c2cccc(I)c2)n1` [H I H CH2 CH2 CH2 F, 1-(3-iodophenyl)-N-methyl-N-(3-fluoropropyl)-3-isoquinolinecarboxamide] yielded a Ki of 1.3 nM.

Turning to `CN(CCCF)C(=O)c1cc2ccccc2c(-c2ccccc2I)n1` [H H CH2 CH2 CH2 F, 1-(2-iodophenyl)-N-methyl-N-(3-fluoropropyl)-3-isoquinolinecarboxamide], the affinity corresponds to a Ki of 0.26 nM.

For `CCC(C)N(C)C(=O)c1cc2ccccc2c(-c2cccc(I)c2)n1` (stereo not shown) [H I H CH3 CHCH2 CH3], the Ki is 2.8 nM and 1.53 nM.

As for `CCC(C)N(C)C(=O)c1cc2ccccc2c(-c2ccc(I)cc2)n1` (stereo not shown) [H H I CH3 CHCH2 CH3], the Ki is 3.1 nM and 1.6 nM.

`CN(CCCF)C(=O)c1cc2ccccc2c(-c2ccc(I)cc2)n1` [H H I CH2 CH2 CH2 F, 1-(4-iodophenyl)-N-methyl-N-(3-fluoropropyl)-3-isoquinolinecarboxamide] yielded a Ki of 63.1 nM.

As for `CN(CCF)C(=O)c1cc2ccccc2c(-c2ccccc2I)n1` [I H H CH2 CH2 F, 1-(2-iodophenyl)-N-methyl-N-(2-fluoroethyl)-3-isoquinolinecarboxamide], the Ki is 421 nM.

For a further assay, the system named is PK receptor sites.
Assay: not given
Particulars: background statement; cited from earlier work.
Consider `CCC(C)N(C)C(=O)c1cc2ccccc2c(-c2ccccc2Cl)n1` (stereo not shown) [PK11195, 1-(2-chlorophenyl)-N-methyl-N-(alkyl)-3-isoquinoline carboxamide], for which the “binding to PK receptor sites” value is reported as “binds strongly”.
